This passage reports IC50 results from paper PMC9780888, “4-Isobutylmethcathinone—A Novel Synthetic Cathinone with High In Vitro Cytotoxicity and Strong Receptor Binding Preference of Enantiomers” (Pharmaceuticals, 2022).

The subject of one assay is MRC-5. The assay can be described thus: WST-1 viability assay, MRC-5 cells. Type of assay: cell-based, human. The following applies: MRC-5, 72 h incubation, WST-1, four replicates. As to the method:
(§1) Based on the novelty of the IMBcat compound, we aimed to evaluate its in vitro cytotoxicity in selected model cell lines as well as to determine the toxicity of the IBMcat enantiomers, since both the chemical structure and chirality of compounds could play a role in their bioactivity (Table 2). The cytotoxic profile of the IBMcat was determined by a WST-1 viability assay after 72-h treatment. For this purpose, cell lines derived from distinct tissues, often affected by NPSs, were chosen, i.e., cells of kidney, hepatic, neural, urinary, and intestinal origin as well as keratinocytes and primary fibroblasts (HEK 293T, Hep G2, HMC-3, SH-SY5Y, 5637, CaCo-2, HaCaT, MRC-5, and BJ, respectively). The cytotoxicity of IBMcat and its enantiomers was concentration- and cell-line dependent, the IC50 values, which were in the micromolar range, are given in Table 2. […] This was followed by embryonic kidney cells HEK 293T (immortalized), in which the toxicity ranged between a concentration of 123 and 192 µM.
(§2) In this study, the following cell lines were used: HEK 293T, Hep G2, HMC-3, SH-SY5Y, 5637, CaCo-2, HaCaT, MRC-5, BJ, and L929. […] The selected cell lines were chosen so that not only primary noncancerous cells are evaluated but also cells derived from tissues, which are the most often affected by novel synthetic drugs, i.e., kidney, liver, urinary bladder, and nervous tissue. […]
(§3) The cytotoxicity of IBMCat was evaluated in vitro by using a WST-1 viability assay (Sigma-Aldrich, Saint Louis, MO, USA) based on the transformation of a tetrazolium salt into colored formazan in metabolically active cells. […] After 72 h of additional incubation of the cells, their viability was determined by WST-1. […] The cells were incubated for 2 h, after which absorbance of the raised formazan was measured spectrophotometrically at 450 nm (reference wavelength of 630 nm) using a UV-Vis spectrometer (Bio-Rad Laboratories, Hercules, CA, USA). […] The half-maximal inhibitory concentrations (IC50) were calculated from the measured dose–response curves by AAT Bioquest.

For another assay, the system named is HMC-3. The assay can be described thus: WST-1 viability assay, HMC-3 cells. The format is cell-based, human. The following applies: HMC-3, 72 h incubation, WST-1, four replicates. The protocol: as §1, §2, §3
Background: Formazan colour is commonly taken as a measure of viable cells.

The test system of the next assay is 5637. The assay can be described thus: WST-1 viability assay, 5637 cells. The format is cell-based, human. The following applies: 5637, 72 h incubation, WST-1, four replicates. The protocol: as §1, §2, §3
A further assay has as its system BJ. Kind of assay: WST-1 viability assay, BJ cells. The format is cell-based, human. The following applies: 72 h incubation, WST-1, four replicates. As to the method:
as §1, §2, §3

A further assay relates to L929. Kind of assay: WST-1 viability assay, L929 cells. Type of assay: cell-based, mouse. The following applies: L929, 72 h incubation, WST-1, four replicates. As to the method:
as §1, §2, §3

A further assay concerns Hep G2. The assay can be described thus: WST-1 viability assay, Hep G2 cells. Type of assay: cell-based, human. The note with it: Hep G2, 72 h incubation, WST-1, four replicates. The protocol:
as §1, §2, §3

In another assay the test system is SH-SY5Y. Kind of assay: WST-1 viability assay, SH-SY5Y cells. Type of assay: cell-based, human. The following applies: 72 h incubation, WST-1, four replicates. The protocol: as §1, §2, §3
For the next assay, the system named is HaCaT. The assay can be described thus: WST-1 viability assay, HaCaT cells. Type of assay: cell-based, human. The following applies: 72 h incubation, WST-1, four replicates. As to the method: as §1, §2, §3
For a further assay, the system named is HEK 293T. Kind of assay: WST-1 viability assay, HEK 293T cells. Type of assay: cell-based, human. The protocol: as §1
In this study, the following cell lines were used: HEK 293T, Hep G2, HMC-3, SH-SY5Y, 5637, CaCo-2, HaCaT, MRC-5, BJ, and L929. The cells lines were of the following origin: human embryonic immortalized kidney cells (HEK 293T), cells from hepatocellular carcinoma (Hep G2), microglial immortalized cells (HMC-3), cells from neuroblastoma (SH-SY5Y), the urinary bladder carcinoma (5637), colon carcinoma (CaCo-2), immortalized keratinocytes (HaCaT), noncancerous lung fibroblasts (MRC-5), fibroblasts from the foreskin (BJ) and mouse immortalized fibroblasts (L929; frequently used for cytotoxicity evaluation). The selected cell lines were chosen so that not only primary noncancerous cells are evaluated but also cells derived from tissues, which are the most often affected by novel synthetic drugs, i.e., kidney, liver, urinary bladder, and nervous tissue. Except for L929 and MRC-5 which were supplied by Sigma-Aldrich, the rest of the cell lines were purchased from the American Tissue Culture Collection (ATCC). […]
as §3

The mark [1] stands for this setting: Homo sapiens, 72 h incubation, WST-1, four replicates, read-out: IC50 ± SD.

Where a name gives a salt, the structure may show the parent alone. Read-outs that look alike come from different tables or passages of the source.

Consider `CNC(C)C(=O)c1ccc(CC(C)C)cc1.Cl` (stereo not shown) [IBMcat, 4-isobutylmethcathinone hydrochloride], for which the IC50 (usually the point on the concentration scale where inhibition reaches its midpoint) in the assay with MRC-5 (Homo sapiens, MRC5) was 635 ± 17 µM; with HMC-3 (Homo sapiens, HMC3), 61 ± 2 µM; with 5637 (Homo sapiens), 18 ± 1 µM; in the assay with BJ (Homo sapiens), 749 ± 102 µM; with L929 (Mus musculus), 36 ± 4 µM; in the assay on Hep G2 (Homo sapiens, HepG2), 52 ± 7 µM. Besides, the IC50 with SH-SY5Y (Homo sapiens) was 44 ± 5 µM; in the assay on HaCaT (Homo sapiens), 357 ± 40 µM; with HEK 293T (Homo sapiens, 72 h, racemate and enantiomers, read-out: toxicity (IC50) range) it was 123 to 192 µM; in the assay on HEK 293T (setting [1]), 123 ± 6 µM.

Regarding `CN[C@H](C)C(=O)c1ccc(CC(C)C)cc1` [R-IBMCat], the half-inhibitory concentration (IC50) came out at 515 ± 34 µM in the assay on MRC-5; 65 ± 2 µM in the assay on HMC-3; 20 ± 1 µM in the assay on 5637; 698 ± 88 µM with BJ; 39 ± 2 µM in the assay on L929; 49 ± 1 µM in the assay with Hep G2. For the same compound, the IC50 in the assay with SH-SY5Y was determined as 52 ± 4 µM; in the assay with HaCaT, 329 ± 43 µM; with HEK 293T (72 h incubation, WST-1, four replicates, read-out: IC50 ± SD), 185 ± 5 µM.

In the case of `CN[C@@H](C)C(=O)c1ccc(CC(C)C)cc1` [S-IBMCat, (S)-4-isobutylmethcathinone hydrochloride], the IC50 in the assay on MRC-5 (Homo sapiens, MRC5) was 530 ± 35 µM; in the assay with HMC-3 (Homo sapiens, HMC3), 64 ± 1 µM; in the assay with 5637 (Homo sapiens), 21 ± 4 µM; with BJ (Homo sapiens), 685 ± 41 µM; with L929 (Mus musculus), 33 ± 5 µM; with Hep G2 (Homo sapiens, HepG2), 46 ± 9 µM. Also, the IC50 in the assay with SH-SY5Y (Homo sapiens) was 50 ± 1 µM; in the assay on HaCaT (Homo sapiens), 361 ± 22 µM; with HEK 293T (setting [1]) it was 192 ± 2 µM.
